According to US9745289B2, “Aldosterone synthase inhibitors” (Boehringer Ingelheim International GmbH, priority 2014, dated 2017):

molecular target: cortisol synthase (CYP11B1) (Macaca fascicularis, UniProt A0A2K5ULY1); assay: Inhibition of Cortisol Synthesis; assay type: biochemical, cynomolgus monkey; details: cynomolgus adrenal gland mitochondria; 150 units of CYP11B1, 11-deoxycortisol as substrate, cortisol measured as product
Description: The aldosterone synthase and cortisol synthase inhibition assays employ cynomolgus adrenal gland mitochondria as the source of aldosterone synthase (CYP11B2) and cortisol synthase (CYP11B1). […] Activity of CYP11B2 and CYP11B1 in these preparations is defined as the amount of enzyme that generates 1 pmol of product in one hour under the conditions described.
Assays are performed in 96-well format in a final volume of 60 μL/well, containing 100 mM potassium phosphate, pH 7.4, 1% (v/v) DMSO, and additionally, 2 μM of corticosterone and 50 units of CYP11B2 activity. Reactions are started by the addition of NADPH to 1 mM and allowed to proceed for 90 minutes at 37° C. Reactions are terminated by the addition of 60 μL of MeCN containing an internal standard for mass spectrometry. One hundred microliters are then transferred to a glass filter plate and centrifuged at 570×g for 5 minutes and the filtrate is collected. Reaction product aldosterone is quantified by mass spectrometry. To determine the assay blank value (0% activity), NADPH is omitted from some reactions.
Dose dependent inhibition is quantified by the inclusion of compound at various concentrations. Maximum activity (100%) is defined by reactions containing NADPH, but without compound.
Assays are performed as for aldosterone synthase except for the use of 150 units of CYP11B1, 11-deoxycortisol as substrate and cortisol measured as product.

| Compound | IC50 [µM] |
| --- | --- |
| NC(=O)c1cccc2c1OCC(c1cncc(-c3ccc(S(N)(=O)=O)cc3)c1)O2 (single isomer, unassigned) [Cpd 16A, 2-[5-(4-Sulfamoyl-phenyl)-pyridin-3-yl]-2,3-dihydro-benzo[1,4]dioxine-5-carboxylic acid amide] | 5.2 |
| NC(=O)c1cccc2c1OCC(c1cncc(-c3ccc(S(N)(=O)=O)cc3)c1)O2 (single isomer, unassigned) [Cpd 16B, 2-[5-(4-Sulfamoyl-phenyl)-pyridin-3-yl]-2,3-dihydro-benzo[1,4]dioxine-5-carboxylic acid amide] | 0.054 |
| CC(=O)N1CC[C@H](Oc2cncc(C3COc4c(cccc4C(N)=O)O3)c2)C1 (single isomer, unassigned) [Cpd 17A] | > 30 |
| CC(=O)N1CC[C@H](Oc2cncc(C3COc4c(cccc4C(N)=O)O3)c2)C1 (single isomer, unassigned) [Cpd 17B] | 18 |
| CC(=O)N1CC[C@@H](Oc2cncc(C3COc4c(cccc4C(N)=O)O3)c2)C1 (single isomer, unassigned) [Cpd 18A] | 16 |
| CC(=O)N1CC[C@@H](Oc2cncc(C3COc4c(cccc4C(N)=O)O3)c2)C1 (single isomer, unassigned) [Cpd 18B] | 1.1 |
| CC(=O)N1CC(Oc2cncc(C3COc4c(cccc4C(N)=O)O3)c2)C1 (single isomer, unassigned) [Cpd 19A, 2-[5-(1-Acetyl-azetidin-3-yloxy)-pyridin-3-yl]-2,3-dihydro-benzo[1,4]dioxine-5-carboxylic acid amide] | > 30 |
| CC(=O)N1CC(Oc2cncc(C3COc4c(cccc4C(N)=O)O3)c2)C1 (single isomer, unassigned) [Cpd 19B, 2-[5-(1-Acetyl-azetidin-3-yloxy)-pyridin-3-yl]-2,3-dihydro-benzo[1,4]dioxine-5-carboxylic acid amide] | 24 |
| NC(=O)c1cccc2c1OCC(c1cncc(CO)c1)O2 (single isomer, unassigned) [Cpd 20A, 2-(5-Hydroxymethyl-pyridin-3-yl)-2,3-dihydro-benzo[1,4]dioxine-5-carboxylic acid amide] | 8.2 |
| NC(=O)c1cccc2c1OCC(c1cncc(CO)c1)O2 (single isomer, unassigned) [Cpd 20B, 2-(5-Hydroxymethyl-pyridin-3-yl)-2,3-dihydro-benzo[1,4]dioxine-5-carboxylic acid amide] | 6.8 |
| Cc1c(F)cncc1C1COc2c(cccc2C(N)=O)O1 (single isomer, unassigned) [Cpd 21A, 2-(5-Fluoro-4-methyl-pyridin-3-yl)-2,3-dihydro-benzo[1,4]dioxine-5-carboxylic acid amide] | 2.6 |
| Cc1c(F)cncc1C1COc2c(cccc2C(N)=O)O1 (single isomer, unassigned) [Cpd 21B, 2-(5-Fluoro-4-methyl-pyridin-3-yl)-2,3-dihydro-benzo[1,4]dioxine-5-carboxylic acid amide] | 5.3 |
| NC(=O)c1cccc2c1OCC(c1cncc(C(F)F)c1)O2 (single isomer, unassigned) [Cpd 22A, 2-(5-Difluoromethyl-pyridin-3-yl)-2,3-dihydro-benzo[1,4]dioxlne-5-carboxylic acid amide] | 2 |
| NC(=O)c1cccc2c1OCC(c1cncc(C(F)F)c1)O2 (single isomer, unassigned) [Cpd 22B, 2-(5-Difluoromethyl-pyridin-3-yl)-2,3-dihydro-benzo[1,4]dioxlne-5-carboxylic acid amide] | 2.3 |
| Cc1ccncc1C1COc2c(cccc2C(N)=O)O1 (single isomer, unassigned) [Cpd 23A, 2-(4-Methyl-pyridin-3-yl)-2,3-dihydro-benzo[1,4]dioxine-5-carboxylic acid amide] | 1.4 |
| Cc1ccncc1C1COc2c(cccc2C(N)=O)O1 (single isomer, unassigned) [Cpd 23B, 2-(4-Methyl-pyridin-3-yl)-2,3-dihydro-benzo[1,4]dioxine-5-carboxylic acid amide] | 2 |
| CN(Cc1cncc(C2COc3c(cccc3C(N)=O)O2)c1)C(=O)C1CC1 (single isomer, unassigned) [Cpd 24A, 2-{5-[(Cyclopropanecarbonyl-methyl-amino)-methyl]-pyridin-3-yl}-2,3-dihydro-benzo[1,4]dioxine-5-carboxylic acid amide] | 7 |

| Compound | IC50 [µM] |
| --- | --- |
| CN(Cc1cncc(C2COc3c(cccc3C(N)=O)O2)c1)C(=O)C1CC1 (single isomer, unassigned) [Cpd 24B, 2-{5-[(Cyclopropanecarbonyl-methyl-amino)-methyl]-pyridin-3-yl}-2,3-dihydro-benzo[1,4]dioxine-5-carboxylic acid amide] | 25 |
| CN(C)C(=O)COCc1cncc(C2COc3c(cccc3C(N)=O)O2)c1 (single isomer, unassigned) [Cpd 25A, 2-(5-Dimethylcarbamoylmethoxymethyl-pyridin-3-yl)-2,3-dihydro-benzo[1,4]dioxine-5-carboxylic acid amide] | > 100 |
| CN(C)C(=O)COCc1cncc(C2COc3c(cccc3C(N)=O)O2)c1 (single isomer, unassigned) [Cpd 25B, 2-(5-Dimethylcarbamoylmethoxymethyl-pyridin-3-yl)-2,3-dihydro-benzo[1,4]dioxine-5-carboxylic acid amide] | 15 |
| NC(=O)c1cccc2c1OCC(c1cncc(C3(O)CCC3)c1)O2 (single isomer, unassigned) [Cpd 26A, 2-[5-(1-Hydroxy-cyclobutyl)-pyridin-3-yl]-2,3-dihydro-benzo[1,4]dioxine-5-carboxylic acid amide] | 1.8 |
| NC(=O)c1cccc2c1OCC(c1cncc(C3(O)CCC3)c1)O2 (single isomer, unassigned) [Cpd 26B, 2-[5-(1-Hydroxy-cyclobutyl)-pyridin-3-yl]-2,3-dihydro-benzo[1,4]dioxine-5-carboxylic acid amide] | 0.67 |
| Cc1c(C(C)O)cncc1C1COc2c(cccc2C(N)=O)O1 (single isomer, unassigned) [Cpd 27A, 2-[5-(1-Hydroxy-ethyl)-4-methyl-pyridin-3-yl]-2,3-dihydro-benzo[1,4]dioxine-5-carboxylic acid amide] | 2.8 |
| Cc1c(C(C)O)cncc1C1COc2c(cccc2C(N)=O)O1 (single isomer, unassigned) [Cpd 27B, 2-[5-(1-Hydroxy-ethyl)-4-methyl-pyridin-3-yl]-2,3-dihydro-benzo[1,4]dioxine-5-carboxylic acid amide] | 5 |
| CNC(=O)c1cccc2c1OCC(c1cncc(C(F)(F)F)c1)O2 (single isomer, unassigned) [Cpd 28A, 2-(5-Trifluoromethyl-pyridin-3-yl)-2,3-dihydro-benzo[1,4]dioxine-5-carboxylic acid methylamide] | > 30 |
| CNC(=O)c1cccc2c1OCC(c1cncc(C(F)(F)F)c1)O2 (single isomer, unassigned) [Cpd 28B, 2-(5-Trifluoromethyl-pyridin-3-yl)-2,3-dihydro-benzo[1,4]dioxine-5-carboxylic acid methylamide] | 6.1 |
| CN(C)C(=O)Cc1cncc(C2COc3c(cccc3C(N)=O)O2)c1 (single isomer, unassigned) [Cpd 29A, 2-[5-[2-(Dimethylamino)-2-oxo-ethyl]-3-pyridyl]-2,3-dihydro-1,4-benzodioxine-5-carboxamide] | 22 |
| CN(C)C(=O)Cc1cncc(C2COc3c(cccc3C(N)=O)O2)c1 (single isomer, unassigned) [Cpd 29B, 2-[5-[2-(Dimethylamino)-2-oxo-ethyl]-3-pyridyl]-2,3-dihydro-1,4-benzodioxine-5-carboxamide] | > 30 |
| NC(=O)c1cccc2c1OCC(c1cncc(CC(=O)N3CCC(F)(F)CC3)c1)O2 (single isomer, unassigned) [Cpd 30A, 2-{5-[2-(4,4-Difluoro-piperidin-1-yl)-2-oxo-ethyl]-pyridin-3-yl}-2,3-dihydro-benzo[1,4]dioxine-5-carboxylic acid amide] | 22 |
| NC(=O)c1cccc2c1OCC(c1cncc(CC(=O)N3CCC(F)(F)CC3)c1)O2 (single isomer, unassigned) [Cpd 30B, 2-{5-[2-(4,4-Difluoro-piperidin-1-yl)-2-oxo-ethyl]-pyridin-3-yl}-2,3-dihydro-benzo[1,4]dioxine-5-carboxylic acid amide] | 24 |
| NC(=O)c1cccc2c1OCC(c1cncc(CN3CCOC3=O)c1)O2 (single isomer, unassigned) [Cpd 31A, 2-[5-(2-Oxo-oxazolidin-3-ylmethyl)-pyridin-3-yl]-2,3-dihydro-benzo[1,4]dioxine-5-carboxylic acid amide] | > 30 |
| NC(=O)c1cccc2c1OCC(c1cncc(CN3CCOC3=O)c1)O2 (single isomer, unassigned) [Cpd 31B, 2-[5-(2-Oxo-oxazolidin-3-ylmethyl)-pyridin-3-yl]-2,3-dihydro-benzo[1,4]dioxine-5-carboxylic acid amide] | > 30 |
| NC(=O)c1cccc2c1OCC(c1cncc(C3(F)CCOCC3)c1)O2 (single isomer, unassigned) [Cpd 32A, 2-[5-(4-Fluoro-tetrahydro-pyran-4-yl)-pyridin-3-yl]-2,3-dihydro-benzo[1,4]dioxine-5-carboxylic acid amide] | 6 |
